Our source for the NOEL, LOEL and NOAEL values is EPA's ToxValDB 9.5.

A value given as a limit tells only on which side of the number the result lay.

The subject of the data set is Rattus norvegicus.
[1] abbreviates: short-term, duration: 28 days, oral, gavage, F, Sprague-Dawley, Clinical Observation: Locomotor activity decrease, Crouching position + Functional Observational Battery: Reactivity decrease + Body Weight ….
[2] abbreviates: short-term, duration: 28 days, oral, gavage, M, Sprague-Dawley, Clinical Observation: Locomotor activity decrease, Crouching position + Functional Observational Battery: Reactivity decrease + Body Weight ….
The mark [3] stands for this setting: short-term, duration: 28 days, oral, gavage, F, Sprague-Dawley, Clinical Observation: Staggering gait Locomotor activity decrease, Lacrimation Prone position Loose stool + Functional Observational Battery….
Where [4] appears, read: short-term, duration: 28 days, oral, gavage, M, Sprague-Dawley, Clinical Observation: Staggering gait Locomotor activity decrease, Lacrimation Prone position Loose stool + Functional Observational Battery….
[5] abbreviates: short-term, duration: 28 days, oral, gavage, F, Sprague-Dawley, Clinical Observation: Staggering gait + Body Weight Changes: decrease, Gain decrease + Urinalysis: pH decrease, Protein decrease, Volume ….
[6] abbreviates: short-term, duration: 28 days, oral, gavage, M, Sprague-Dawley, Clinical Observation: Staggering gait + Body Weight Changes: decrease, Gain decrease + Urinalysis: pH decrease, Protein decrease, Volume ….
Where [7] appears, read: subchronic, oral, gavage, M, Sprague-Dawley, Clinical Observation: Salivation PtosisReddish urine + Functional Observational Battery: Salivation Coordination of movement, abnormal ….
Setting [8] is: short-term; duration: 28 days; oral; gavage; M; Sprague-Dawley; Deaths/5) + Body Weight Changes: decrease + Food Consumption: decrease + Urinalysis: Urine volume decrease, Uosm increase + Hematology: MCH ….

As usually defined, the NOAEL is the highest dose or exposure tested at which no adverse effect was seen.

Regarding `Clc1ccc(OCOCC#CI)cc1` [1-Chloro-4-(((3-iodo-2-propynyl)oxy)methoxy)benzene], the NOEL (subchronic, oral, gavage, M, Sprague-Dawley, Clinical Observation: Salivation Loose stool + Body Weight Changes: decreaseor decrease(trend) + Food Consumption: decrease + Hematology: …) was found to be 8 mg/kg-day.
Take `O=C1c2ccccc2C(=O)c2c(Cl)cccc21` [1-Chloroanthraquinone]: where the note is “short-term, duration: 28 days, oral, gavage, M/F, Sprague-Dawley, Clinical Observation: Brown urine + Functional Observational Battery: Landing foot splay decrease, Locomotor activity decrease + Food …”, the NOEL was less than 4 mg/kg-day.
For `Clc1cccc2ccccc12` [1-Chloronaphthalene], the LOEL reads like this: under setting [1], 100 mg/kg-day; under setting [2], 100 mg/kg-day. The NOEL is, setting by setting: under setting [1], 30 mg/kg-day; under setting [2], 30 mg/kg-day.
As to `CN1CCNCC1` [1-Methylpiperazine], for the setting “subchronic, oral, gavage, M, Sprague-Dawley, Body Weight Changes: Gain decrease(trend)Gain rate decrease + Hematology: WBC decrease(trend)RET decrease, Eosinophil ratio decrease + Blood…”, the NOEL is 80 mg/kg-day.
Turning to `CCNc1cccc2ccccc12` [1-Naphthalenamine, N-ethyl-], the NOEL (short-term, duration: 28 days, oral, gavage, M/F, Sprague-Dawley, Deaths + Clinical Observation: Brown urine Soft feces + Functional Observational Battery: Motor activity decrease + Body Weight Changes: …) is 12 mg/kg-day.
`CCC[N+](=O)[O-]` [1-Nitropropane]: the NOAEL (short-term, duration: 28 days, oral, gavage, M/F, Sprague-Dawley, Deaths + Clinical Observation: Salivation Red/brown staining around the mouth Hunched posture + Body Weight Changes: Body weight gain …) was 30 mg/kg-day.
Regarding `NC(=O)Nc1ccccc1` [1-Phenylurea], the LOEL runs as follows: under setting [3], 400 mg/kg-day; under setting [4], 200 mg/kg-day. In addition, the NOEL is, setting by setting: under setting [3], 200 mg/kg-day; under setting [4], 100 mg/kg-day.
With `CCCCCCCCCCCCC(CO)CCCCCCCCCC` (stereo unspecified) [1-Tetradecanol, 2-decyl-], the NOAEL (subchronic, oral, gavage, M, Sprague-Dawley, Urinalysis: Occult blood + Hematology: PT increase, APTT increase + Blood Chemistry: LDH increase) is 62.5 mg/kg-day.
Take `CC1(C)COC(=O)C1O` (stereo unspecified) [2(3H)-Furanone, dihydro-3-hydroxy-4,4-dimethyl-]: where the note is “short-term, duration: 28 days, oral, gavage, M, Sprague-Dawley, Blood Chemistry: K increase”, the NOAEL was 200 mg/kg-day.
For the compound `O=C(Nc1ccccc1SSc1ccccc1NC(=O)c1ccccc1)c1ccccc1` [2,2'-Dibenzoylaminodiphenyl disulfide], the NOEL (subchronic, oral, gavage, M, Sprague-Dawley, Clinical Observation: Salivation + Blood Chemistry: ALT increase, Glu increase + Absolute Organ Weight: Liver increase + Relative Organ …) was 300 mg/kg-day.
With `Cc1cc(Cc2cc(C)cc(C(C)(C)C)c2O)c(O)c(C(C)(C)C)c1` [2,2'-Methylenebis(4-methyl-6-tert-butylphenol)], the NOEL (subchronic, oral, diet, F, Wistar, Deaths: Survival rate.6 (45% % ).0 (20% % ) + Body Weight Changes: decrease + Food Consumption: decrease + Hematology: Hgb decrease RBC …) is less than 104 mg/kg-day; the NOEL (subchronic, oral, diet, M/F, Wistar, Deaths: Survival rate.6 (45% % ).0 (20% % ) + Body Weight Changes: decrease + Food Consumption: decrease + Hematology: Hgb decrease RBC …) is less than 0.12%; the NOEL (subchronic, oral, diet, M/F, Wistar, Hematology: Hgb increasemg/kg/ + Blood Chemistry: Cho increasemg/kg/ + Absolute Organ Weight: Liver increasemg/kg/ + Relative Organ …) was determined as 1.92 mg/kg-day.
For the compound `Nc1ccccc1OCCOc1ccccc1N` [2,2'-[Ethane-1,2-diylbis(oxy)]dianiline], the NOEL (short-term, duration: 28 days, oral, gavage, M/F, Blood Chemistry: Alb increase, T-Bil increase, TG decrease, GPT increase, TP increase + Organ Weight: Liver increase, Kidney increase + …) was less than 50 mg/kg-day.
As for `O=Cc1cccc(Cl)c1Cl` [2,3-Dichlorobenzaldehyde], the NOEL (short-term, duration: 28 days, oral, gavage, M/F, Clinical Observation: Salivation + Body Weight Changes: Body weight gain decrease + Blood Chemistry: GPT increase, A/G increase + Organ …) was less than 20 mg/kg-day.
Take `NCCCC1OCC2(CO1)COC(CCCN)OC2` (stereo unspecified) [2,4,8,10-Tetraoxaspiro[5.5]undecane-3,9-dipropanamine]: the NOEL (subchronic, oral, gavage, M, Sprague-Dawley, Clinical Observation: Locomotor activity decrease, Respiratory irregularity Prone position Salivation + Body Weight Changes: decrease1000…) is less than 40 mg/kg-day.
Take `CC(C)(C)CC(C)(C)c1cc(O)c(C(C)(C)CC(C)(C)C)cc1O` [2,5-Bis(1,1,3,3-tetramethylbutyl)hydroquinone]: the NOEL (subchronic, oral, gavage, M, Sprague-Dawley, Clinical Observation: Soft stool Soiled perineal region + Body Weight Changes: Gain decrease + Food Consumption: increase + Hematology: Hgb …) was found to be 10 mg/kg-day.
Consider `Nc1ccc([N+](=O)[O-])cc1O` [2-Amino-5-nitrophenol], for which the NOEL (subchronic, duration: 13 weeks, oral, gavage, M/F, Fischer 344, Deaths + Body Weight Changes: decrease + Absolute Organ Weight: Liver increase + Relative Organ Weight: Liver increase + Histopathology: …) is less than 100 mg/kg-day.
As to `CCC(C)=NO` [2-Butanone oxime], the NOEL reads like this: (subchronic, oral, drinking water, F, Fischer 344, Clinical Observation: Dark eyes Pale ears + Body Weight Changes: decrease + Water Consumption: decrease + Hematology: Hct decrease, Hgb …) less than 30 mg/kg-day; (subchronic, oral, drinking water, M/F, Fischer 344, Clinical Observation: Dark eyes Pale ears + Body Weight Changes: decrease + Water Consumption: decrease + Hematology: Hct decrease, Hgb …) less than 47.4 mg/kg-day.
On to `COc1ccc(OC)c(Cl)c1` [2-Chloro-1,4-dimethoxybenzene], for which the LOEL amounted to 200 mg/kg-day under setting [5] and 200 mg/kg-day under setting [6]. Moreover, the NOEL under setting [5] was 40 mg/kg-day; the NOEL under setting [6] is 40 mg/kg-day; the NOEL (subchronic, oral, gavage, M, Sprague-Dawley, Hematology: RBC decrease, MCV increase, MCH increase + Blood Chemistry: T-Cho increase, PL increase, Ca increase + Absolute Organ Weight: …) was 30 mg/kg-day.
The compound `Nc1ccc([N+](=O)[O-])cc1Cl` [2-Chloro-4-nitroaniline] returned an NOEL (subchronic, oral, gavage, Sprague-Dawley) of 100 mg/kg-day.
In the case of `CCCCC(CC)COC(=O)CS` (stereo unspecified) [2-Ethylhexyl thioglycolate], the NOAEL (short-term, duration: 28 days, oral, diet, M, Fischer 344, Hematology: WBC decrease Lymph decrease + Blood Chemistry: AST increase) was determined as 0.2%.
In the case of `COc1ccc(C)cc1N` [2-Methoxy-5-methylaniline], where the note is “short-term, duration: 28 days, oral, gavage, M/F, Clinical Observation: Salivation + Body Weight Changes: Weight gain decrease + Food Consumption: decrease + Urinalysis: Occult blood RBC …”, the NOEL came out at 2 mg/kg-day.
With `CC(O)CC(C)(C)O` (stereo unspecified) [2-Methyl-2,4-pentanediol], for the setting “subchronic, duration: 90 days, oral, gavage, M/F, CD(SD), Deaths: None (there were dead animals by miss-dosing) + Water Consumption: increase + Urinalysis: pH decrease, S.G. increase + Hematology: …”, the NOAEL was 450 mg/kg-day.
On to `C=CC(C)(C)O` [2-Methyl-3-buten-2-ol], for which, under “short-term, duration: 28 days, oral, gavage, M/F, Wistar, Deaths + 'excluded + Clinical Observation: Sedation Ataxia Uncoordinated gait Salivation + Blood Chemistry: ALT increase, AST increase + …”, the NOAEL came out at 50 mg/kg-day.
Turning to `COCCOCCOCCO` [2-[2-(2-Methoxyethoxy)ethoxy]ethanol], the NOAEL (chronic, duration: 91 days, oral, drinking water, M/F, Sprague-Dawley, Deaths + Body Weight Changes: Body weight gain decrease + Food Consumption: decrease + Water Consumption: decrease + Absolute Organ Weight: …) was 400 mg/kg-day.
For `Cc1ccc(Cl)c(Cl)c1` [3,4-Dichlorotoluene], the NOEL (subchronic, oral, gavage, M, Sprague-Dawley, Deaths + Clinical Observation: Death-1/6 on treatment day 15R + Body Weight Changes: decrease(tendency)Body weight gain decrease(tendency…) worked out at 100 mg/kg-day.
Take `Nc1cc(C(=O)O)ccc1Cl` [3-Amino-4-chlorobenzoic acid]: under “subchronic, oral, gavage, M, Sprague-Dawley, Clinical Observation: Transient salivation + Histopathology: Mesentric lymph node-Granuloma R”, the NOEL stood at 200 mg/kg-day.
Regarding `CCO[Si](CCCN)(OCC)OCC` [3-Aminopropyltriethoxysilane], the NOAEL (chronic, duration: 91 days, oral, gavage, M/F, CD(SD), Deaths + Clinical Observation: Rales Wet and/or dried material (red, yellow, brown and/or clear) on various body surfaces Abnormal excreta…) came to 200 mg/kg-day.
Regarding `C=C(C)CCl` [3-Chloro-2-methylpropene], the NOEL (subchronic, duration: 13 weeks, oral, gavage, M/F, Fischer 344, Deaths + Clinical Observation: Rough coat>400 + Body Weight Changes: decrease + Histopathology: Liver-Inflammation, Chronic, Focal Liver-…) was found to be 100 mg/kg-day.
With `O=C1OC(O)C(C(Cl)Cl)=C1Cl` (stereo unspecified) [3-Chloro-4-(dichloromethyl)-5-hydroxy-2(5H)-furanone], the NOAEL (chronic, duration: 18 weeks, oral, gavage, M/F, Wistar, Deaths + Clinical Observation: Emaciation Wheezy breathing Tangled fur Hypersalivation Dirty mouth surrounding Colored nostril discharges + …) is less than 30 mg/kg-day.
For the compound `CC(C)=CCO` [3-Methyl-2-buten-1-ol], the NOAEL (subchronic, duration: 90 days, oral, drinking water, M/F, Wistar, Body Weight Changes: Mean body weight decrease, Weight gain decrease + Food Consumption: decrease + Water Consumption: decrease + Urinalysis…) was 152 mg/kg-day.
Regarding `O=C(O)c1cccc([N+](=O)[O-])c1` [3-Nitrobenzoic acid], the NOEL (subchronic, oral, gavage, M, Sprague-Dawley, Body Weight Changes: decrease + Hematology: RBC decrease + Blood Chemistry: TP decrease, A/G increase, Pi increase, K increase, Cl decrease…) came to 20 mg/kg-day.
For `COc1cc(NC(=O)CC(C)=O)c(OC)cc1Cl` [4'-Chloro-2',5'-dimethoxyacetoacetanilide], under setting [7], the NOAEL came out at 40 mg/kg-day and the NOEL was determined as 8 mg/kg-day.
As to `O=S(=O)(c1ccc(Cl)cc1)c1ccc(Cl)cc1` [4,4'-Dichlorodiphenyl sulfone], the NOEL (chronic, duration: 14 weeks, oral, diet, M/F, Fischer 344, Body Weight Changes: decrease + Food Consumption: decrease + Hematology: Hgb decrease, Plt increase + Blood Chemistry: TP increase, BUN …) is less than 2.34 mg/kg-day. Moreover, under setting [8], the no observed adverse effect level (NOAEL) is less than 50 mg/kg-day and the NOEL was less than 50 mg/kg-day.
For the compound `CCc1ncnc(Cl)c1Cl` [4,5-DICHLORO-6-ETHYLPYRIMIDINE], where the note is “short-term, duration: 28 days, oral, gavage, M/F, Deaths + Clinical Observation: Salivation Locomotor activity decrease, Ptosis + Body Weight Changes: Weight gain decrease + Food Consumption…”, the NOEL worked out at 5 mg/kg-day.
With `O=[N+]([O-])c1cc([As](=O)(O)O)ccc1O` [4-Hydroxy-3-nitrophenylarsonic acid], under “subchronic, duration: 13 weeks, oral, diet, M/F, Fischer 344, Deaths + Clinical Observation: Ruffled fur Hyperexcitability Ataxia Trembling Slight inactivity + Body Weight Changes: decrease + Relative …”, the NOEL is less than 4.8 mg/kg-day.
